Laboratory results published in ChEMBL document CHEMBL1212848 (Bioorg Med Chem, 2010).
The source made the active and inactive calls. No cut-off for these calls is given here.

Experiments:
HeLa = assay: Cellular uptake in human HeLa cells assessed as retention time at 2 uM after 48 hrs by HPLC-MS analysis; format: ADME, cell-based
MCF7 [1] = assay: Cytotoxicity against human MCF7 cells assessed as reduction of cell proliferation at 1 nM to 1 uM after 96 hrs by MTT assay; format: functional, cell-based
MCF7 [2] = assay: Cytotoxicity against human MCF7 cells assessed as reduction of cell proliferation at 6 uM after 96 hrs by MTT assay; format: functional, cell-based
Estrogen receptor = biological target: T1, Estrogen receptor (Homo sapiens, UniProt P03372); assay: biochemical
T1 sequence (P03372 whole entry): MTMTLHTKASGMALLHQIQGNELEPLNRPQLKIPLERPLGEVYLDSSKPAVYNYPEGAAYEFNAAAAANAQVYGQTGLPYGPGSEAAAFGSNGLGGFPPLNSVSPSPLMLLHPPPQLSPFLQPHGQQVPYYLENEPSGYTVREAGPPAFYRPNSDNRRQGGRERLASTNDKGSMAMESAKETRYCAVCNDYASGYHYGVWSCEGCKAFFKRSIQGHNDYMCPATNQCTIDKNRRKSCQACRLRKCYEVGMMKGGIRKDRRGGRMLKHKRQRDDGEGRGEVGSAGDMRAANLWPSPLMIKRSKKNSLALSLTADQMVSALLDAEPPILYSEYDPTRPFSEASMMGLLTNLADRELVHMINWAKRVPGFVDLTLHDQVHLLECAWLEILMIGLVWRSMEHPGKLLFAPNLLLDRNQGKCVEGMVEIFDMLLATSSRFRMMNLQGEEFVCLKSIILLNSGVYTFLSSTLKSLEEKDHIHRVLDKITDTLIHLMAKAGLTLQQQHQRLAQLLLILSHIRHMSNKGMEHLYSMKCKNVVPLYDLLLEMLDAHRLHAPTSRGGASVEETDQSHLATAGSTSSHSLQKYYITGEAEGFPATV
Description: Displacement of [2,4,6,7-3H]estradiol from human ERalpha expressed in HeLa cells after 18 hrs by liquid scintillation counting

Cancer cell lines [3] = assay: Cytotoxicity against human cervical cancer cells assessed as reduction of [3H]thymidine incorporation at 2 uM after 24 to 48 hrs by scintillation counting; format: functional, cell-based
Cancer cell lines [4] = assay: Cytotoxicity against human cervical cancer cells assessed as reduction of [3H]thymidine incorporation at 5 nM after 24 to 48 hrs by scintillation counting; format: functional, cell-based
[5] = biological target: T2, Estrogen receptor (Homo sapiens) (UniProt P03372); assay: Agonist activity at human ERalpha expressed in human HeLa cells coexpressing ERE-E1b-Luc assessed as transcriptional activation after 48 hrs by luciferase reporter gene assay relative to estradiol; format: functional, cell-based
T2 sequence (whole entry): T1 sequence (P03372 whole entry)

Row | Time (HeLa) | Ki (Estrogen receptor) | Activity [5] | SMILES | Activity (MCF7 [1]) | Activity (MCF7 [2]) | Activity (Cancer cell lines [3]) | Activity (Cancer cell lines [4])
1 | 10 min | 13 nM | – | CCCC[N+](C)(C)CCOc1ccc(/C(=C(/CC)c2ccccc2)c2ccccc2)cc1.[Br-] [TAMOXIFEN BUTYL BROMIDE] | inactive | Active | inactive | Active
2 | 9 min | – | – | CC/C(=C(\c1ccccc1)c1ccc(OCCN(C)C)cc1)c1ccccc1 [TAMOXIFEN] | inactive | Active | – | –
3 | 10 min | 25.4 nM | 50% | CC/C(=C(\c1ccccc1)c1ccc(OCC[N+](C)(C)C(C)C)cc1)c1ccccc1.[Br-] [TAMOXIFEN ISOPROPYL BROMIDE] | inactive | Active | inactive | Active

More lines, now with the values behind:

Row | SMILES | Time (HeLa) | Ki (Estrogen receptor) | Activity [5] | Activity (MCF7 [1]) | Activity (MCF7 [2]) | Activity (Cancer cell lines [3]) | Activity (Cancer cell lines [4])
4 | CC/C(=C(\c1ccccc1)c1ccc(OCC[N+](C)(C)C)cc1)c1ccccc1.[I-] [TAMOXIFEN METHYL IODIDE] | 5 min | 46.3 nM | – | inactive | Active | – | –
5 | CC/C(=C(\c1ccccc1)c1ccc(OCC[N+](C)(C)CC)cc1)c1ccccc1.[Br-] [TAMOXIFEN ETHYL BROMIDE] | 8 min | 13.7 nM | – | inactive | Active | – | –
6 | CCC[N+](C)(C)CCOc1ccc(/C(=C(/CC)c2ccccc2)c2ccccc2)cc1.[Br-] [TAMOXIFEN PROPYL BROMIDE] | 9 min | – | – | inactive | Active | – | –
